Laboratory results published in patent US9504729B2, “Antiangiogenic small molecules and methods of use” (The United States of America, as represented by the …, priority 2009, dated 2016).

System: angiogenesis genes in dermal microvascular endothelial cells
Assay: Real time RT-PCR of angiogenesis gene expression during endothelial tube formation
Type: cell-based
Conditions: 1 μM SM, 24 hours

CC1CCN(CC[S-])CC1.O.O.[Cl][Pt+] [compound 292596]
Log2 fold-change of gene expression: 1839: −0.3 | Log2 fold-change of gene expression: 4247: −0.3 | Log2 fold-change of gene expression: 5569: 0.1 | Log2 fold-change of gene expression: 8131: 0.3 | Log2 fold-change of gene expression: 9569: −2.0 | Log2 fold-change of gene expression: 10988: 0.9 | Log2 fold-change of gene expression: 23001: 0.1 | Log2 fold-change of gene expression: 55332: −8.6 | Log2 fold-change of gene expression: 57722: −0.2 | Log2 fold-change of gene expression: 58488: 0.2 | Log2 fold-change of gene expression: 90780: −0.8 | Log2 fold-change of gene expression: 134265: −1.6 | Log2 fold-change of gene expression: AKT1: −0.8 | Log2 fold-change of gene expression: ANGPT1: 2.2 | Log2 fold-change of gene expression: ANGPT2: 0.8 | Log2 fold-change of gene expression: ANGPTL3: 1.0 | Log2 fold-change of gene expression: ANGPTL4: −3.2 | Log2 fold-change of gene expression: ANPEP: 0.8 | Log2 fold-change of gene expression: ANTXR1: −2.1 | Log2 fold-change of gene expression: APOE: 5.1 | Log2 fold-change of gene expression: ARHGEF1: −1.6 | Log2 fold-change of gene expression: Acvrl1: −1.6 | Log2 fold-change of gene expression: Adcy4: 4.3 | Log2 fold-change of gene expression: BAL1: 1.7 | Log2 fold-change of gene expression: BMP1: −0.4 | Log2 fold-change of gene expression: C1orf54: −2.2 | Log2 fold-change of gene expression: CALD1: 1.6 | Log2 fold-change of gene expression: CCL2: 2.4 | Log2 fold-change of gene expression: CCL11: 2.1 | Log2 fold-change of gene expression: CD248: 0.2 | Log2 fold-change of gene expression: CDH5: −0.2 | Log2 fold-change of gene expression: CENTD3: 0.1 | Log2 fold-change of gene expression: CLIC1: 0.6 | Log2 fold-change of gene expression: COL4A3: 1.9 | Log2 fold-change of gene expression: COL18A1: 2.3 | Log2 fold-change of gene expression: COMT: −0.7 | Log2 fold-change of gene expression: CST4: 0.3 | Log2 fold-change of gene expression: CTTNBP2NL: −3.4 | Log2 fold-change of gene expression: CXCL3: −3.8 | Log2 fold-change of gene expression: CXCL5: 5.6 | Log2 fold-change of gene expression: CXCL6: 2.2 | Log2 fold-change of gene expression: CXCL9: 1.5 | Log2 fold-change of gene expression: CXCL10: 2.5 | Log2 fold-change of gene expression: Calcr1: −4.3 | Log2 fold-change of gene expression: Caskin2: −2.3 | Log2 fold-change of gene expression: Ccbp2: 0.0 | Log2 fold-change of gene expression: Cldn5: −0.6 | Log2 fold-change of gene expression: DGKG: 1.8 | Log2 fold-change of gene expression: DKK3: −0.4 | Log2 fold-change of gene expression: DLL4: −6.6 | Log2 fold-change of gene expression: DUT: −1.2 | Log2 fold-change of gene expression: EFNA1: 3.1 | Log2 fold-change of gene expression: EFNA3: 0.5 | Log2 fold-change of gene expression: EFNB2: −3.4 | Log2 fold-change of gene expression: EGF: 2.2 | Log2 fold-change of gene expression: ENG: −0.3 | Log2 fold-change of gene expression: EPHB4: 0.9 | Log2 fold-change of gene expression: EREG: 9.6 | Log2 fold-change of gene expression: ESAM1: −2.0 | Log2 fold-change of gene expression: EXTL3: −0.5 | Log2 fold-change of gene expression: Egf17: −3.3 | Log2 fold-change of gene expression: Ehd4: −1.0 | Log2 fold-change of gene expression: Entpd1: −8.3 | Log2 fold-change of gene expression: Epas1: 0.3 | Log2 fold-change of gene expression: EphB1: 0.4 | Log2 fold-change of gene expression: Erg: −6.4 | Log2 fold-change of gene expression: FGF1: 4.8 | Log2 fold-change of gene expression: FGF2: 2.5 | Log2 fold-change of gene expression: FGFR3: 2.2 | Log2 fold-change of gene expression: FIGF: 1.7 | Log2 fold-change of gene expression: FLT1: −1.9 | Log2 fold-change of gene expression: Fgd5: −1.0 | Log2 fold-change of gene expression: GPCR124: −6.7 | Log2 fold-change of gene expression: GRRP1: 0.2 | Log2 fold-change of gene expression: Grp116: −3.1 | Log2 fold-change of gene expression: HAND2: 1.7 | Log2 fold-change of gene expression: HGF: 2.2 | Log2 fold-change of gene expression: HIF1A: −2.1 | Log2 fold-change of gene expression: HPSE: −0.3 | Log2 fold-change of gene expression: Hspa12b: −3.3 | Log2 fold-change of gene expression: ID1: 4.0 | Log2 fold-change of gene expression: ID3: 1.0 | Log2 fold-change of gene expression: IFNA1: 2.2 | Log2 fold-change of gene expression: IFNB1: 2.6 | Log2 fold-change of gene expression: IFNG: 6.5 | Log2 fold-change of gene expression: IGF1: 0.6 | Log2 fold-change of gene expression: IL1B: −4.1 | Log2 fold-change of gene expression: IL6: 3.7 | Log2 fold-change of gene expression: IL8: 5.1 | Log2 fold-change of gene expression: ITGAV: −0.9 | Log2 fold-change of gene expression: ITGB3: −1.8 | Log2 fold-change of gene expression: Icam1: 0.5 | Log2 fold-change of gene expression: Icam2: −0.4 | Log2 fold-change of gene expression: JAG1: 0.5 | Log2 fold-change of gene expression: KDR: −1.8 | Log2 fold-change of gene expression: Kifc1: 1.6 | Log2 fold-change of gene expression: LAMAS5: −0.3 | Log2 fold-change of gene expression: LECT1: 1.4 | Log2 fold-change of gene expression: LEP: 2.6 | Log2 fold-change of gene expression: Lasts2: 0.4 | Log2 fold-change of gene expression: Lrrk1: −1.5 | Log2 fold-change of gene expression: MDK: −1.5 | Log2 fold-change of gene expression: MMP2: 1.1 | Log2 fold-change of gene expression: MMP9: 1.8 | Log2 fold-change of gene expression: MMP11: −0.3 | Log2 fold-change of gene expression: MRC2: −0.5 | Log2 fold-change of gene expression: Mmm2: −2.4 | Log2 fold-change of gene expression: Myo1b: −2.0 | Log2 fold-change of gene expression: NID1: −3.6 | Log2 fold-change of gene expression: NM023516: 0.2 | Log2 fold-change of gene expression: NRP1: −2.3 | Log2 fold-change of gene expression: NRP2: −3.2 | Log2 fold-change of gene expression: Notch4: −0.6 | Log2 fold-change of gene expression: Npr3: 0.7 | Log2 fold-change of gene expression: PALD: −1.9 | Log2 fold-change of gene expression: PDCD2: −1.1 | Log2 fold-change of gene expression: PDGFA: 4.0 | Log2 fold-change of gene expression: PECAM1: −1.8 | Log2 fold-change of gene expression: PGF: −1.7 | Log2 fold-change of gene expression: PLAU: −0.2 | Log2 fold-change of gene expression: PLG: −0.4 | Log2 fold-change of gene expression: PNMT: −0.7 | Log2 fold-change of gene expression: PROK2: 2.0 | Log2 fold-change of gene expression: PTGS1: 1.1 | Log2 fold-change of gene expression: PTPRCAP: −0.5 | Log2 fold-change of gene expression: Pltp: 0.5 | Log2 fold-change of gene expression: Ptprb: −1.9 | Log2 fold-change of gene expression: Ptprm: −0.8 | Log2 fold-change of gene expression: RAMP2: −5.0 | Log2 fold-change of gene expression: RASD2: −0.5 | Log2 fold-change of gene expression: Rasip1: −0.5 | Log2 fold-change of gene expression: S1PR1: 0.2 | Log2 fold-change of gene expression: SERPINF1: 0.7 | Log2 fold-change of gene expression: SPHK1: 1.8 | Log2 fold-change of gene expression: STAB1: −0.5 | Log2 fold-change of gene expression: Sdc4: 1.4 | Log2 fold-change of gene expression: Sdpr: 0.8 | Log2 fold-change of gene expression: Slc43a3: 0.6 | Log2 fold-change of gene expression: Slco2a1: −1.0 | Log2 fold-change of gene expression: TEK: 1.3 | Log2 fold-change of gene expression: TGFA: 8.9 | Log2 fold-change of gene expression: TGFB1: −0.8 | Log2 fold-change of gene expression: TGFB2: 2.1 | Log2 fold-change of gene expression: TGFBR1: 1.4 | Log2 fold-change of gene expression: THBS1: −0.1 | Log2 fold-change of gene expression: THBS2: 1.1 | Log2 fold-change of gene expression: THY1: −5.8 | Log2 fold-change of gene expression: TIMP1: 1.4 | Log2 fold-change of gene expression: TIMP2: 0.4 | Log2 fold-change of gene expression: TIMP3: −1.2 | Log2 fold-change of gene expression: TNF: 6.1 | Log2 fold-change of gene expression: TNS1: −0.5 | Log2 fold-change of gene expression: TNS3: 1.3 | Log2 fold-change of gene expression: TRA2B: 0.9 | Log2 fold-change of gene expression: TYMP: −5.5 | Log2 fold-change of gene expression: VEGFA: 0.4 | Log2 fold-change of gene expression: VEGFC: 1.6 | Log2 fold-change of gene expression: VGLL4: −2.8 | Log2 fold-change of gene expression: Vwf: −2.6 | Log2 fold-change of gene expression: copa: −0.5 | Log2 fold-change of gene expression: itbp4: −1.5 | Log2 fold-change of gene expression: ralb: −0.5 | Log2 fold-change of gene expression: stard9: −0.9 | Log2 fold-change of gene expression: B2M (1st listing (r49)): −2.0 | Log2 fold-change of gene expression: HPRT1 (1st listing (r50)): −0.5 | Log2 fold-change of gene expression: RPL13A (1st listing (r51)): 1.9 | Log2 fold-change of gene expression: GADPH (1st listing (r52)): 0.3 | Log2 fold-change of gene expression: ACTB (1st listing (r53)): 0.0 | Log2 fold-change of gene expression: PLXDC1 (1st listing (r74)): 0.3 | Log2 fold-change of gene expression: TNFAIP2 (1st listing (r91)): −0.2 | Log2 fold-change of gene expression: Robo4 (1st listing (r95)): −1.2 | Log2 fold-change of gene expression: 151516 (1st listing (r134)): 0.3 | Log2 fold-change of gene expression: TNFAIP2 (2nd listing (r92)): −0.1 | Log2 fold-change of gene expression: B2M (2nd listing (r97)): −1.6 | Log2 fold-change of gene expression: HPRT1 (2nd listing (r98)): 0.1 | Log2 fold-change of gene expression: RPL13A (2nd listing (r99)): 1.5 | Log2 fold-change of gene expression: GADPH (2nd listing (r100)): 0.8 | Log2 fold-change of gene expression: ACTB (2nd listing (r101)): −0.4 | Log2 fold-change of gene expression: PLXDC1 (2nd listing (r104)): 0.2 | Log2 fold-change of gene expression: 151516 (2nd listing (r139)): 0.3 | Log2 fold-change of gene expression: Robo4 (2nd listing (r188)): 0.2 | Log2 fold-change of gene expression: B2M (3rd listing (r145)): −0.4 | Log2 fold-change of gene expression: HPRT1 (3rd listing (r146)): 0.4 | Log2 fold-change of gene expression: RPL13A (3rd listing (r147)): 1.1 | Log2 fold-change of gene expression: GADPH (3rd listing (r148)): −0.3 | Log2 fold-change of gene expression: ACTB (3rd listing (r149)): −0.9 | Log2 fold-change of gene expression: B2M (4th listing (r193)): −0.8 | Log2 fold-change of gene expression: HPRT1 (4th listing (r194)): 0.1 | Log2 fold-change of gene expression: RPL13A (4th listing (r195)): 0.6 | Log2 fold-change of gene expression: GADPH (4th listing (r196)): 0.4 | Log2 fold-change of gene expression: ACTB (4th listing (r197)): −0.1
